The text below walks through data of patent publication US8445217B2, “Free solution measurement of molecular interactions by backscattering interferometry” (Vanderbilt University, priority 2007, dated 2013).

The target in test [1] is T1, Calmodulin (CaM) (Homo sapiens, UniProt P0DP23).
T1 construct: purchased Sigma, St. Louis, Mo
Put plainly: BSI free-solution CaM-Ca^2+ interaction. The settings on record: for Kd: 5 μM CaM, pH 7.5, 25° C. The format is binding. How it is done: Homogeneous, label-free CaM-Ca^2+ interactions are quantified with BSI by real-time monitoring the sequential reactions of a constant concentration of 5 μM CaM with Ca^2+ solutions increasing in concentrations from 12.5-100 μM (FIG. 24A). Here CaM was buffered at pH=7.5 with 0.1M HEPES and 0.1M KCl, with its concentration held constant at 5 μM. In this aspect, the CaM solution contained a small amount of EGTA to chelate any free Ca^2+. The reactions were carried out in the same microfluidic chip molded in PDMS with the temperature fixed at 25° C. A 5 μM CaM solution and a 100 μM Ca^2+ solution both consisting of excess EGTA (i.e., 400 μM), served as the control.
Kinetic analysis using a single exponential gives rise to a plot of observed rates versus Ca^2+ concentration that is linear. A least squares analysis of the linear plot yields the slope, intercept, and their respective errors. […] Without wishing to be bound by theory, it is believed that the disparity in these two values was due likely to a less than optimal approach to fitting the kinetic data and the RI background present from unreacted ligand, particularly at high concentrations.
These experiments were conducted at 25±0.01° C. maintained by a thermoelectric temperature controller (MELCOR, Trenton, N.J.) coupled to a Peltier device. Binding experiments were monitored in real-time at frequencies ca. 50-100 Hz.
CaM was buffered at a pH=7.5 with 0.1M HEPES and 0.1M KCl with its concentration held constant throughout the experiment at 5 μM. The CaM solution contained a small amount of EGTA to chelate any free Ca^2+. BSI monitored, in real-time, the sequential reactions of 5 μM CaM with concentrations of Ca^2+ ranging from 12.5-100 μM.

Test [2] concerns the target T1, Calmodulin (CaM). The settings on record: literature; read-out: published Kd values, calmodulin-calcium ion interaction; cited from earlier work.

Where two headings read alike, the source gives them in different places.

Turning to `[Ca+2]` [Ca^2+], on Calmodulin (CaM) [1] (5 μM CaM and 100 μM Ca^2+, both with excess EGTA (400 μM)), the “control: change in signal above that observed in the absence of excess EGTA at equivalent concentrations” value is below 3%. Also, the Kd was 3.36 µM at Calmodulin (CaM) [1] (12.5-100 μM Ca^2+, read-out: Kd CaM-Ca^2+, kinetic analysis (observed rates versus Ca^2+ concentration)); 17.8 µM on Calmodulin (CaM) [1] (read-out: Kd CaM-Ca^2+, steady-state values analysed by Prism); 1 to 10 µM on Calmodulin (CaM) [2].
